Assays:
[1] = biological target: T1, human EGFR (wildtype), EGFR(DKIN) (Homo sapiens, UniProt P00533); experiment: Binding of wildtype-EGFR (T7 phage-displayed kinase competition binding)
T1 construct: Kd for EGFR(DKIN); made in house
Source text: Methods for measuring binding affinities for interactions between small molecules and kinases including FLT3, c-KIT, ABL([…]) [a.k.a. ABL([…])], VEGFR-2 (a.k.a. KDR), and EGFR are described in detail in U.S. application Ser. No. 10/873,835, which is incorporated by reference herein in its entirety. The components of the assays include human kinases expressed as fusions to T7 bacteriophage particles and immobilized ligands that bind to the ATP site of the kinases. […] If the test compound binds the kinase it competes with the immobilized ligand and prevents binding to the solid support. […] The results are read out by quantitating the amount of fusion protein bound to the solid support, which is accomplished by either traditional phage plaque assays or by quantitative PCR (qPCR) using the phage genome as a template. […] The concentration of test molecule that reduces the number of phage bound to the solid support by 50% is equal to the Kd for the interaction between the kinase and the test molecule. Typically, data are collected for twelve concentrations of test compound and, the resultant binding curve is fit to a non-cooperative binding isotherm to calculate Kd. Described in the exemplary assays below is data from binding with varying kinases. […] The term “ND” represents non-determined values. […] The Kd for the interaction between the soluble compound (competitor) molecule and EGFR is equal to the concentration of soluble competitor molecule that causes a 50% reduction in the number of phage recovered in the eluate compared to a control sample lacking soluble competitor.

[2] = biological target: T2, EGFR (tyrosine 1173 phosphorylation) in A431 cells (Homo sapiens, UniProt P00533); experiment: EGFR Autophosphorylation Inhibition Assay in Epidermoid Carcinoma Cell Line A431; assay type: cell-based; details: EGF-induced phosphorylation of tyrosine 1173
T2 construct: endogenous in cells; host or cells: A431
Method: (§1) Tyrosine 1173 is a major autophosphorylation site resulting from activation of EGFR by epidermal growth factor (EGF). To determine the capacity of a compound to inhibit this phosphorylation activity of EGFR upon itself, the following methodology was used: 4×10^4 A431 cells/well in a 96-well culture plate or 3.6×10^5 A549 cells/well in a 24-well culture plate were cultured overnight at 37° C. in 5% CO2 in low serum culture medium (DMEM supplemented with 0.5% fetal calf serum, 4.500 mg/L glucose and 100 units/ml penicillin-streptomycin). After 16 hours, the cells were pre-incubated in eight serial 3-fold dilutions of test compound (3.3 μM-0.0017 μM) in addition to vehicle control (final concentration on DMSO vehicle was 1%) for two hours. Cells were stimulated by the addition of 5 ng/ml of EGF for five minutes. Cells were then washed with cold phosphate buffered saline (PBS), and incubated for 30 minutes at 4° C. in lysis buffer. Subsequently, the samples were centrifuged at 6000× RCF for 15 minutes, and the level of phosphorylation of EGFR tyrosine 1173 was measured using a sandwich enzyme-linked immunosorbent assay following the manufacturer's recommended protocols (Biosource, Camarillo, Calif.). Total EGFR levels were also measured in the same manner to control for protein level differences. The reported values are those concentrations of compound required to inhibit EGF-induced phosphorylation of tyrosine 1173 by 50%.

[3] = biological target: T3, EGFR (tyrosine 1173 phosphorylation) in Lung Cancer Cell Line A459 (Homo sapiens, UniProt P00533); experiment: EGFR Autophosphorylation Inhibition Assay in Lung Cancer Cell Line A459; assay type: cell-based; details: EGF-induced phosphorylation of tyrosine 1173
T3 construct: endogenous in cells
Method: as §1

T1 sequence (P00533 712-979 limits assumed): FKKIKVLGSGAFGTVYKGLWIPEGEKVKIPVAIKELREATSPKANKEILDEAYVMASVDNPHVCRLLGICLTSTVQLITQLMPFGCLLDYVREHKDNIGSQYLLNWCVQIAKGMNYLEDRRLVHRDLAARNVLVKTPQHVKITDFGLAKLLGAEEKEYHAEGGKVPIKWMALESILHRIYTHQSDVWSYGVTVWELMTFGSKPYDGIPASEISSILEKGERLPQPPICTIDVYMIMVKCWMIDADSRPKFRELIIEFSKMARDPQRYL
T2 sequence (P00533 25-1210): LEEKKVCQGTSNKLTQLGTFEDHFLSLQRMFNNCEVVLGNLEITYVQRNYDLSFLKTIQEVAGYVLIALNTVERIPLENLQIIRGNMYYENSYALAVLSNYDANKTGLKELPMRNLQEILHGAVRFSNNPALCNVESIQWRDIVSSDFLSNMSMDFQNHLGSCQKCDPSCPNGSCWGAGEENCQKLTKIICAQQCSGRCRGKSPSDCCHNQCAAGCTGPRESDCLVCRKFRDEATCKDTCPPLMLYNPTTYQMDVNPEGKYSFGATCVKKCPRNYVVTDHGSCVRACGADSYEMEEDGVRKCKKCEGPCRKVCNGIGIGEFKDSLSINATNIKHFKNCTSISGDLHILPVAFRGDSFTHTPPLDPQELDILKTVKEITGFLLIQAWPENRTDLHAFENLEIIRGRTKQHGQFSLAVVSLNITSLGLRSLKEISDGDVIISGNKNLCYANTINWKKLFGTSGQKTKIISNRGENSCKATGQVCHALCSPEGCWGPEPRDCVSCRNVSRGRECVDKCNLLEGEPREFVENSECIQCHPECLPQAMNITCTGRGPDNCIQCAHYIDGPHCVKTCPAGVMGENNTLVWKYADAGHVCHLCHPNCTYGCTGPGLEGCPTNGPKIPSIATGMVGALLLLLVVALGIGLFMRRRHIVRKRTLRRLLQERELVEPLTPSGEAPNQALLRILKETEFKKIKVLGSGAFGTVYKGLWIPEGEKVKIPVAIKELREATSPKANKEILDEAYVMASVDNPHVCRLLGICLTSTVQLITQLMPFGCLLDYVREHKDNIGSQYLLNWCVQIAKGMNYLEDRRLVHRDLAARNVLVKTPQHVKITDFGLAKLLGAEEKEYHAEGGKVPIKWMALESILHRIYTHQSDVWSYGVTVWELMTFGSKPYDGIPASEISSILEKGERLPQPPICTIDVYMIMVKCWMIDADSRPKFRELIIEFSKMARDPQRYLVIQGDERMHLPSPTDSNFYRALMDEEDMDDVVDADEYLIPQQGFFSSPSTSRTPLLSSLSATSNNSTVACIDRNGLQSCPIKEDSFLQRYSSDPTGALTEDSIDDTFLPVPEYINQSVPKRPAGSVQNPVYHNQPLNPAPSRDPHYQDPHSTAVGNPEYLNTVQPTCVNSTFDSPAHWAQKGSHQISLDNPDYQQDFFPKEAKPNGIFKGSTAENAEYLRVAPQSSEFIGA
T3 sequence (P00533 25-1210): as above

Compound	Kd [1] [nM]	IC50 [2] [nM]	IC50 [3] [nM]
COc1cccc(Sc2ncnc3[nH]c(-c4ccc(O)cc4)cc23)c1 [Compound L4]	100 to 1000		
CCc1ccccc1Sc1ncnc2[nH]c(-c3cccc(OC)c3)cc12 [Compound J20]	< 100	1000 to 10000	
COc1cccc(-c2cc3c(Oc4cccc(F)c4)ncnc3[nH]2)c1 [Compound D20]	100 to 1000		
COc1ccc(-c2cc3c(OCc4ccccc4)ncnc3[nH]2)cc1 [Compound C4]	100 to 1000		
Clc1cccc(Sc2ncnc3c2[nH]c2ccccc23)c1 [Compound K10]	< 100	100 to 1000	100 to 1000
COc1cccc(-c2cc3c(Sc4ccccc4)ncnc3[nH]2)c1 [Compound J33]	< 100	100 to 1000	1000 to 10000
Oc1ccc(-c2cc3c(Sc4ccc(Cl)cc4)ncnc3[nH]2)cc1 [Compound L7]	< 100	100 to 1000	1000 to 10000
COc1ccc(-c2cc3c(Sc4ccc(F)cc4)ncnc3[nH]2)cc1 [Compound J13]	< 100	1000 to 10000	
COc1ccc(-c2cc3c(Oc4cccc(C)c4)ncnc3[nH]2)cc1 [Compound D8]	< 100		
COc1cccc(-c2cc3c(Sc4cccc(C(F)(F)F)c4)ncnc3[nH]2)c1 [Compound J28]	< 100	1000 to 10000	
COc1cccc(-c2cc3c(Sc4cccc(Cl)c4)ncnc3[nH]2)c1 [Compound J24]	< 100	100 to 1000	100 to 1000
COc1cccc(-c2cc3c(Sc4ccc(C(C)(C)C)cc4)ncnc3[nH]2)c1 [Compound J32]	1000 to 10000		
Brc1cccc(Sc2ncnc3c2[nH]c2ccccc23)c1 [Compound K8]	< 100	100 to 1000	
COc1cccc(Oc2ncnc3[nH]c(-c4ccc(O)cc4)cc23)c1 [Compound E4]	100 to 1000		
Fc1ccc(Sc2ncnc3c2[nH]c2ccccc23)cc1 [Compound K14]	< 100	100 to 1000	100 to 1000
Cc1cccc(Sc2ncnc3c2[nH]c2ccccc23)c1 [Compound K12]	100 to 1000		
COc1cccc(-c2cc3c(Sc4ccc(F)cc4)ncnc3[nH]2)c1 [Compound J30]	< 100	1000 to 10000	1000 to 10000
Clc1ccc(Sc2ncnc3c2[nH]c2ccccc23)cc1 [Compound K13]	< 100	100 to 1000	
COc1cccc(-c2cc3c(Sc4ccc(C)cc4)ncnc3[nH]2)c1 [Compound J31]	< 100	1000 to 10000	> 10000
COc1ccc(-c2cc3c(OCc4cccc(C)c4)ncnc3[nH]2)cc1 [Compound C3]	> 10000		
COc1ccc(-c2cc3c(Oc4cccc(Cl)c4)ncnc3[nH]2)cc1 [Compound D5]	< 100	100 to 1000	
COc1ccc(-c2cc3c(Sc4cccc(C)c4)ncnc3[nH]2)cc1 [Compound J10]	100 to 1000		
COc1ccc(-c2cc3c(Sc4cccc(Cl)c4)ncnc3[nH]2)cc1 [Compound J7]	< 100	1000 to 10000	1000 to 10000
Cc1cc(C)cc(Sc2ncnc3[nH]c(-c4ccc(O)cc4)cc23)c1 [Compound J18]	100 to 1000		
Oc1cccc(Sc2ncnc3oc(-c4ccccc4)c(-c4ccccc4)c23)c1 [Compound N4]	100 to 1000		
COc1ccc(-c2cc3c(Sc4cccc(C(F)(F)F)c4)ncnc3[nH]2)cc1 [Compound J11]	100 to 1000		
c1ccc(Sc2ncnc3c2[nH]c2ccccc23)cc1 [Compound K17]	< 100		
Cc1ccc(Sc2ncnc3[nH]c(-c4ccc(O)cc4)cc23)cc1 [Compound L9]	< 100	100 to 1000	1000 to 10000

Source: patent US20050239806A1, “Pyrrolopyrimidine derivatives and analogs and their use in the treatment and prevention of diseases” (Ambit Biosciences Corporation, priority 2004, published 2005)
